Measured values: patent US20230065158A1, “OXABICYCLOHEPTANES FOR TREATMENT OF SMALL CELL LUNG CANCER” (Lixte Biotechnology, Inc., priority 2021, published 2023)
Like-named read-outs stand apart in the source and are kept apart here.

Experiments:
[1] = system: H524 cells; experiment: Cell Counting Kit-8 cytotoxicity and drug combination, H524
Method: A Mann-Whitney U test was used for comparison between the normal and SCLC samples. FIG. 1B: IHC for PP2A was conducted on TMA tissue sections and images were captured at 4× or 20× using a 3D-Histech PANNORAMIC SCAN whole slide scanner (3D-Histech, Budapest, Hungary). […] TMAs were scored in normal (n=24) and tumor (n=79) cores on a scale from 0 (no staining/no protein expression) to 3+(strong staining/high protein expression). FIG. 1C: Summary bar graph of the average PP2A subunit staining. IHC staining intensity of normal and tumor cores. […] FIG. 1D: In order to compare the expression of PP2A subunits A and C, cell lysates from seven SCLC cell lines and HBEC 3KT (non-malignant cell line) were subjected to western blotting. FIG. 1E: PP2A activity was determined using a serine/threonine phosphatase activity assay (Millipore) after 24 h exposure to cantharidin (10 μM) and LB-100 (5 μM). […] The Cell Counting Kit-8 assay detected cell H524 and H69 cell viability. […] FIGS. 1I-1K: Graphs depict the mean+SEM of percent viability for cells (n=3). Colony formation assays were used to count the ability of H524 (FIGS. 11 and 1J) and H69 (FIGS. 1K and 1L) cells to form colonies. […] Representative images of colonies at 4× are shown under the graph (n=2).*p<0.05; **, p<0.01; *** p<0.001; ****, p<0.0001. Experiments were repeated in triplicate and representative data are shown.

[2] = system: H69 cells; experiment: Glucose uptake assay (glucose oxidase); type: cell-based; settings: LB-100 20 μM, compared with control without cells
Excerpt: FIGS. 4A-4F depict a reactome pathway analysis of PamGene PTKs and STKs after LB-100 treatment of H524 cells and Biolog phenotype MicroArray. […] Table includes 10 carbon sources affected by LB-100 (n=3). […] P<0.001 (***) for control (untreated cells) vs. LB-100. FIG. 4D: Amplex Red Glucose/Oxidase assay kit was used to measure glucose level in cell culture media. […] Glucose concentration detected in initial medium and counted as 100%. Subtracting final medium level of glucose from initial glucose medium concentration yielded % glucose in the medium with cells (n=3). Effect of LB-100 on MET phosphorylation. FIG. 4E: H524 and H69 cells were treated overnight with LB-100 (H524—5 μM and H69—20 μM) following by stimulation with 100 ng/ml HGF in 10 min. Cells were collected and lysed for WB analysis with pMET and total MET antibody. Pan-actin was used as loading control (n=3). FIG. 4F: H524 cell lysates (control, LB-100, carboplatin and combination (LB-100/carboplatin) were analyzed by western blots to check phosphorylation status of MET at Ser985 and Tyr1234/1235. Actin was used as a loading control (n=3). […]
Glucose consumption was determined by using a colorimetric glucose assay (Invitrogen, Carlsbad, Calif.) following the manufacturer's instructions. […] The uptake of glucose was determined compared with initial glucose concentration in the cell culture medium, which was taken as 100%.

[3] = system: H69 cells mouse xenograft; experiment: Subcutaneous H69 cells mouse xenograft; type: in vivo, Athymic nude mice; settings: for tumor weight compared to vehicle-treated group: end of experiment
Method: FIGS. 8A-8E depicts results of LB-100 activity alone and with carboplatin against H69 cells mouse xenograft. Tumor size (FIG. 8A) and body weights (FIG. 8B) were measured. Inhibition of tumor growth after LB-100 (*p<0.05), carboplatin (***p<0.001) and their combination (***p<0.001) were delivered via i.p. injections. P values show significant differences compared with vehicle group. FIG. 8C: Tumor images from vehicle and drug-treated groups. FIG. 8D: Tumor mass was measured at the end of experiment. […] FIG. 8E: Columns show total platinum (Pt) concentration in mouse tumors with carboplatin and LB-100/carboplatin treatments (n=3 as technical replicates) Pt mass was normalized to tumor total mass. Statistical analysis was performed using an ANOVA with Tukey post hoc-test (*p<0.05), carboplatin (**p<0.01).
Animal studies were performed according to an IACUC protocol approved by City of Hope National Medical Center Animal Care and Use Committee. Athymic nude mice (5-6 weeks of age) were purchased from NCI (Frederick, Md.). Mice were injected subcutaneously on their right flank with H69 cells suspended (2×106) in 100 μl of PBS and 100 μl of matrigel (BD Biosciences, San Jose, Calif.). Tumor growth was measured in two dimensions with caliper and when surface tumor was visible (45-50 mm2) mice were randomized in four groups as follow: vehicle (PBS, i.p. 3 times a week), LB100 (0.25 mg/kg, i.p. 3 times a week), carboplatin (50 mg/kg, i.p. 2 times a week) and drug combination (LB100/carboplatin i.p.) for 30 days. At the end of the study, the mice were euthanized by CO2 asphyxiation followed by cervical dislocation. Tumor tissues were excised, weighed, and subsequently fixed in 10% buffered formalin and embedded in paraffin for histological analysis.

[4] = target: protein phosphatase 2A (PP2A) (Homo sapiens, UniProt P67775); experiment: Inhibition of PP2A versus PP1; type: biochemical; settings: PP2A vs PP1
protein phosphatase 2A (PP2A), sequence (P67775 whole entry): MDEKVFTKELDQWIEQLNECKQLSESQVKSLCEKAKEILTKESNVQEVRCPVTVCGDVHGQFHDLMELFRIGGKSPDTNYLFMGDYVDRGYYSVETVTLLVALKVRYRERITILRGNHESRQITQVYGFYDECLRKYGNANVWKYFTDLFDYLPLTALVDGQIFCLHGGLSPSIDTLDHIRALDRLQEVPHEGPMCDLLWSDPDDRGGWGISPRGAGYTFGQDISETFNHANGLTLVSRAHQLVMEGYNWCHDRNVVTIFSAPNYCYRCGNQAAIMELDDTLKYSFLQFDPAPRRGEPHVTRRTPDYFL

[5] = system: H526 cells; settings: human, 72 h
Excerpt: (§1) To determine specific cytotoxicity, we used Cell Counting Kit-8 (Dojindo Molecular Technologies, Rockville, Md.) as previously described (50).

[6] = system: H146 cells; settings: human, 72 h
Excerpt: as §1

[7] = system: H526 cells; experiment: Cell Counting Kit-8 cytotoxicity, H526
Excerpt: as §1

[8] = system: H146 cells; experiment: Cell Counting Kit-8 cytotoxicity, H146
Excerpt: as §1

Row | Compound | IC50 ([1]; Homo sapiens, NCI-H524, 72 h, read-out: Cytotoxicity IC50, H524, 72 hours) | IC50 ([1]; human, 72 h) | reduction of consumption of glucose in media [2] | tumor weight compared to vehicle-treated group [3] | tumor size ([3]; i.p., 30 days) | inhibits PP2A more efficiently than protein phosphatase 1 (PP1) [4] | IC50 [5] | IC50 [6] | IC50 ([7]; Homo sapiens, NCI-H526, 72 h, read-out: Cytotoxicity IC50, H526) | IC50 ([8]; Homo sapiens, NCI-H146, 72 h, read-out: Cytotoxicity IC50, H146) | IC50 ([1]; read-out: Cytotoxicity IC50, H524, 72 hours) | IC50 ([7]; read-out: Cytotoxicity IC50, H526, 72 hours) | IC50 ([8]; read-out: Cytotoxicity IC50, H146, 72 hours)
1 | C[NH+]1CCN(C(=O)C2C(C(=O)O)[C@H]3CC[C@@H]2O3)CC1 (stereo in doubt) [LB-100, 3-[(4-Methylpiperazin-1-yl)carbonyl]-7-oxabicyclo[2.2.1]heptane-2-carboxylic acid] | < 8 µM | 5.3 µM | 65% | significant reduction in tumor weight | statistically significant reduction in tumor size | about 80 fold | 7.2 µM | > 20 µM | < 8 µM | ~20 µM |  |  | 
2 | N.N.O=C([O-])C1(C(=O)[O-])CCC1.[Pt+2] [Carboplatin, reference compound] |  |  |  | significant reduction in tumor weight |  |  |  |  |  |  | 8.2 µM | 33.2 µM | 8.3 µM
